Experimental data: patent EP2695950A1, “Markers for responsiveness to an inhibitor of the fibroblast growth factor receptor” (Blackfield AG, priority 2012, dated 2014)
Like-named read-outs stand apart in the source and are kept apart here.

Key:
[1] = test system: Tumors derived from NIH3T3 cells expressing KRas G12V; test: Xenograft mouse model, tumor volume; format: in vivo, mice; settings: Figure 3; KRas G12V (positive control); 10mg/kg daily by oral gavage
Method: (§1) All animal procedures were approved by the local animal protection committee and the local authorities. Xenograft-experiments were performed in 10 to 15 week old male athymic NMRI-nude-mice (Janvier, Europe). Mice were hold in a 12 hour light-dark-cycle. They got water and standard food ad libitium.
(§2) NIH3T3-cells transduced with empty Vector (puro), empty Vector (puro+zeo), KRAS G12V, FGFR1-α, FGFR1-β, FGFR1-β + cMyc were cultured as described before. For implantation they were resuspended in plain RPMI in a concentration of 50*10^6 cells/ml. 5*10^6 cells were injected subcutaneously in mice, under 2.5% Isolflurane-anaesthesia. Tumorgrowth was monitored every 2nd day by calimetric measurement. Tumorvolumes were calculated by V= […].
(§3) Therapy was started when tumors reached a size of 100mm^3. They were treated daily by oral gavage either with 10mg/kg NVP-BGJ 398 (Novartis) dissolved in vehicle (PEG300, 5%Glucose; 2:1) or with the vehicle-detergent alone. After 8 (KRas), 12 (FGFR1-α and FGFR1-β + cMyc), days of therapy mice were sacrificed by intraperitoneal injection of Ketamin/Xylazine (300/60 mg/kg) and tumors were resected and fixed in 4% formaldehyde for histology.

[2] = test system: Tumors derived from NIH3T3 cells expressing only FGFR1; test: Xenograft mouse model, tumor volume; format: in vivo, mice
Method: as §1, §2, §3

[3] = test system: Tumors derived from NIH3T3 cells expressing two different splice variants of FGFR1 plus Myc; test: Xenograft mouse model, tumor volume; format: in vivo, mice
Method: as §1, §2, §3

[4] = test system: Tumors derived from NIH3T3 cells expressing EML4-Alk; test: Xenograft mouse model, tumor volume; format: in vivo, mice; settings: Figure 6; EML4-Alk (positive control)
H1581 cell line = settings: Figure 12; different concentrations
Method: (§4) All compounds were purchased from commercial suppliers, dissolved in DMSO, and stored at - 20°C. Cells were plated into sterile 96-- - well microtiter plates using a multichannel pipette and cultured overnight. Compounds were then added in serial dilutions. Cellular viability was determined after 96 hours of treatment by measuring cellular ATP content using the CellTiter-- Glo Assay (Promega). Plates were measured on a Mithras LB 940 Plate Reader (Berthold Technologies). GI50 values were determined using the following R package (Frommolt P, Thomas RK, 2008, Standardized high-- - throughput evaluation of cell-- - based compound screens. BMC Bioinformatics. 9:475)

[5] = test system: H1581 cell line with Myc downregulated (shMyc); settings: Figure 12, different concentrations
Method: as §4

[6] = test system: FGFR1-amplified and FGFR1 non-amplified cell lines
[7] = Figure 3, FGFR1 plus Myc, 10mg/kg daily by oral gavage

Row | IC50 values ([6]; Figure 8, cell lines expressing high amounts of FGFR and Myc) | IC50 values ([6]; Figure 9, cell lines H1581 and A427, high FGFR, higher FGFR1β/FGFR1α ratio, high Myc expression) | Compound | tumor size [1] | tumor size ([2]; Figure 3, only FGFR1, 10mg/kg daily by oral gavage) | tumor volume ([2]; Figure 5, tumor expressing only FGFR1, treated mouse) | tumor volume ([2]; Figure 6, two different splice variants of FGFR1) | tumor disappearance [3, 7] | tumor volume [3, 7] | tumor volume ([3]; Figure 5, tumor with FGFR1 and c-myc expression, treated mouse) | tumor volume [4] | response to FGFR inhibition (H1581 cell line) | response to FGFR inhibition [5]
1 |  |  | CCN1CCN(c2ccc(Nc3cc(N(C)C(=O)Nc4c(Cl)c(OC)cc(OC)c4Cl)ncn3)cc2)CC1 [BGJ398] | strong tumor growth | stable disease | did not shrink and even little grew | stable disease under treatment | disappeared within ten days of treatment | strong reduction of tumor volume | completely disappeared after ten days of treatment | increase in tumor volume |  | 
2 | lower IC50 values | lower IC50 values | CCN(CC)CCCCNc1ncc2cc(-c3cc(OC)cc(OC)c3)c(NC(=O)NC(C)(C)C)nc2n1 [PD173074] |  |  |  |  |  |  |  |  | highly sensitive/responsive | less response
